Test [1] addresses T1, TRIM66 965-1160 D971A (Homo sapiens, UniProt O15016, D1106A).
T1 construct: GST (N, cleaved yes); made in house; host or cells: Escherichia coli BL21 (DE3)
T1 sequence (O15016 1100-1295 D1106A): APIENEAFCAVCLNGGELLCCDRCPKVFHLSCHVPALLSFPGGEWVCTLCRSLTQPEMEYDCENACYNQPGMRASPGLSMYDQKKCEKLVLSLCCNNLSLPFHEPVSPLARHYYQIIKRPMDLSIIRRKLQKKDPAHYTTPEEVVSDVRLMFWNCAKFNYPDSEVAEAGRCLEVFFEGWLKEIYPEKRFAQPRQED
The test can be described thus: ITC, point mutant. The settings on record: 25 °C, pH 7.5, Weak binding = ITC curves cannot be fitted reliably. How it is done: (§1) We further investigated the role of the TRIM66 PHD-Bromodomain in safeguarding the genome. We first introduced a series of single amino acid mutations to the PHD domain at interaction interface and then performed corresponding ITC assays.
(§2) The calorimetric experiments were performed at 25 °C using a MicroCal PEAQ-ITC. The proteins were dialyzed using a buffer containing 20 mM Tris and 100 mM NaCl at pH 7.5. Lyophilized peptides were dissolved in the same buffer and adjusted to pH 7.5 prior to use. Peptide concentrations were estimated from the quantitative NMR experiments[73],[74]. ITC measurements were performed via injection of 0.7–4 mM peptide into a cell containing 0.12 mM TRIM24-PHD-Bromo, 0.05 mM TRIM33 PHD-Bromo, and 0.05 or 0.11–0.15 mM TRIM66-PHD-Bromo (or its mutants). The ITC data were subsequently analyzed using the MicroCal PEAQ-ITC analysis software.

Test [2] addresses T2, TRIM66 965-1160 D986A (Homo sapiens, UniProt O15016, D1121A).
T2 construct: GST (N, cleaved yes); made in house; host or cells: Escherichia coli BL21 (DE3)
T2 sequence (O15016 1100-1295 D1121A): T1 sequence (O15016 1100-1295 D1106A) with A7D, D22A
The test is described as follows: ITC, point mutant. The settings on record: 25 °C, pH 7.5, Weak binding = ITC curves cannot be fitted reliably. As for the experimental part: as §1, §2

The target of test [3] is T3, TRIM66-WT965-1160 (Homo sapiens, UniProt O15016).
T3 construct: ITC titration: titrating TRIM66-WT965-1160 with various histone H3 peptides; GST (N, cleaved yes); made in house; host or cells: Escherichia coli BL21 (DE3)
T3 sequence (O15016 1100-1295): T1 sequence (O15016 1100-1295 D1106A) with A7D
The test can be described thus: ITC, PHD-Bromodomain wild type. It counts as binding. The settings on record: ITC, MicroCal PEAQ-ITC, 25 °C, 20 mM Tris, 100 mM NaCl, pH 7.5; single measurement, error from curve fit; Weak binding = ITC curves cannot be fitted reliably; N.D. = no detectable binding.
Description: We next performed the glutathione S-transferase (GST) pulldown assays of the TRIM66-WT965-1160 against the calf thymus histones to verify the histone-binding ability of TRIM66 PHD-Bromodomain. […] The PHD of TRIM66 shared a low conservation with those of ING4, PHF2, and BPTF, and lacked the conserved aromatic residues, which were necessary for binding H3K4me2/3[40]–[42] (Supplementary Fig. 2b). Nevertheless, TRIM66 was highly conserved in sequence and structure with the PHDs of TRIM24 and TRIM33 (Fig. 1c and Supplementary Fig. 2b), which were reported to bind H3K4me0[5],[6]; thus, we speculated that the PHD of TRIM66 could bind H3K4me0. To verify this hypothesis, we performed isothermal titration calorimetry (ITC)-based binding assays. […] Based on previous researches reporting the acetyl-lysine binding partners of Bromodomain[3]–[12], we chose a series of related peptides derived from H3 and H4, to test their interactions with TRIM66-WT965-1160 by ITC experiments. […] We further found the acetylated state of K56 was necessary for this binding (Supplementary Fig. 3b).
We next titrated the TRIM66-WT965-1160 with a series of R2-methylated H3 peptides through ITC assays. […] This finding was consistent with the structural observation that each NηH atom of the R2 formed a hydrogen bond with residues in protein (Fig. 2d).
The DNA fragments of human TRIM66_968-1160, TRIM24_824-1006, and TRIM33_882-1087 were amplified from a human bone marrow cDNA library using a PCR-based cloning strategy. The fragments of TRIM66-WT968-1160 were inserted into a pGEX-4T-1 plasmid (GE Healthcare). The fragments of TRIM24_824-1006 and TRIM33_882-1087 were ligated into a pET-SUMO-28a (+) plasmid (Novagen). The DNA fragments of TRIM66-MUT968-1160 and TRIM66-WT965-1160 with codon optimization were synthesized by General Biosystems (sequence was shown in Supplementary Methods) and inserted into a pGEXT-4T-1 plasmid (GE Healthcare). Mutants of TRIM66 PHD-Bromo were generated through PCR using the Mutant Best kit (Takara). The mutation of point mutant based on the codon-optimized DNA sequence of TRIM66-WT965-1160. All constructs were expressed in Escherichia coli BL21 (DE3). The construct of ASF1a1-156 inserted into a pRSFDuet plasmid (courtesy of Ruiming Xu Lab, Institute of Biophysics, Chinese Academy of Sciences) was expressed in E. coli BL21 (DE3) RIL. The construct of full-length H4 inserted into a pET3a plasmid was expressed in E. coli BL21 (DE3). The expression of full-length histone H3K56ac was performed in BL21 (DE3) cells transformed with pBK-AxcKRS3 and pET22b encoding H3 with amber codons at the K56 site[12]. The DNA fragment of full-length TRIM66 was synthesized by General Biosystems and ligated into fugw vector (Addgene). See the information of protein sequence in Supplementary Table 1.
as §2
(Isothermal titration calorimetry measures the heat released or taken up as one component is titrated into another.)

Structures are written as SMILES. Residue numbers refer to the chain shown, from its start.

As a reminder, the Kd is a measure of binding affinity in units of concentration. Low readings indicate higher affinity, high ones lower affinity. Regarding `C[C@H](N)C(=O)N[C@@H](CCCNC(=N)N)C(=O)N[C@H](C(=O)N[C@@H](CCCCN)C(=O)N[C@@H](CCC(N)=O)C(=O)N[C@H](C(=O)N[C@@H](C)C(=O)N[C@@H](CCCNC(=N)N)C(=O)N[C@@H](CCCCN)C(=O)N[C@@H](CO)C(=O)N[C@H](C(=O)NCC(=O)O)[C@@H](C)O)[C@@H](C)O)[C@@H](C)O` [H3_1-12], the KD result in test [1] and in test [2] was “Weak binding” in each case. This molecule had a Kd in test [3] of 15.7 ± 0.64 µM.
